How the values were obtained:
[1] = tested on: p53 effector protein p21; assay: Western blot of transfected SiHa cells for p21; assay type: cell-based, human; conditions: SiHa (HPV-16) cells, Spy Cas9
Procedure: Phenotypic analysis of RGNs in HeLa was performed using the Fugene6 transfection reagent as per the manufacturer's protocol. Cells were plated at 2.5×10^5 cells per well in 6-well plates and transfected with a 3 to 1 ratio of RGN expression vector to pLCE (a GFP-expressing plasmid included to determine transfection efficiency). SiHa cells were transfected with HPV-16-specific RGN expression vectors using Lipofectamine3000 (Clontech) using the manufacturer's protocol. Cells were then harvested and lysed in SDS/β-mercaptoethanol protein lysis buffer 48 hours post transfection. Lysates were subjected to electrophoresis on 4-20% SDS-polyacrylamide gels (Bio-Rad) and transferred to nitrocellulose membranes. […] The membranes were washed in PBS-T, incubated with a species-specific secondary antibody, and then washed again in PBS-T. The membranes were incubated with Western Bright Sirius Western blot detection kit (Advansta) and signals captured using GeneSnap and quantified using GeneTools (Syngene). […]
All the work described thus far used the HPV-18 transformed cervical carcinoma cell line HeLa. To extend these studies, we also analyzed the human SiHa cervical carcinoma cell line, which is transformed by HPV-16 (Seedorf et al., 1987), using sgRNAs specific for HPV-16 E6 and E7, which differ in sequence from HPV-18 E6 and E7. […]

[2] = tested on: HPV-18 E6 gene; assay: Mutagenesis spectra: PCR, cloning and sequencing of HeLa genomic DNA; assay type: cell-based; conditions: Spy Cas9, 48 h post-transfection, of 234 DNA sequence reads
Procedure: (§1) HeLa cells were plated at 2.5×10^5 cells per well in 6-well plates and transfected using Fugene6 with a 3 to 1 ratio of RGN expression vector to pL/CMV/eGFP (pLCE) (Seedorf et al., 1987), which expresses eGFP, to determine transfection efficiency. Genomic DNA was extracted 48 hours post-transfection using a DNeasy kit (Qiagen) following the manufacturer's protocol. The genomic region surrounding the viral target sites was PCR amplified using GoTaq cocktail (Promega, #9PIM300) and then purified. PCR products were then denatured and reannealed to enable DNA heteroduplex formation: 95° C. for 10 min, 95° C. to 85° C. ramping at −1° C./sec, 85° C. to 25° C. at −0.25° C./sec, and 25° C. hold for 1 minute. After reannealing, products were treated with SURVEYOR nuclease and SURVEYOR enhancer S (Transgenomics) following the manufacturer's protocol, and analyzed on a 2% agarose gel. To determine the sequence spectra of the mutations introduced by HPV-18 E6- and E7-specific sgRNAs, we designed primers with unique restriction enzyme sites that bound sequences flanking the predicted RGN cleavage locations. The mutagenized HeLa genomic DNA was PCR amplified at 48 hours after transfection, cloned, sequenced, and aligned to the HeLa genome.
(§2) We next asked if we could inactivate the endogenous HPV-18 E6 and E7 genes integrated into the HeLa cell genome. As all four sgRNAs appeared to function equivalently, we focused our subsequent research on E6 sgRNA1 and E7 sgRNA1. To confirm these sgRNAs were indeed inducing the expected DNA cleavage, we used the SURVEYOR assay to determine if we could detect RGN-induced indels at the predicted Cas9 cleavage site. For this purpose, we transfected HeLa cells with a px330-based vector encoding Spy Cas9 (Cong et al., 2013) and an E6- or E7-specific sgRNA. At 48 hours post-transfection, we isolated the HeLa genomic DNA and PCR-amplified the regions of the HPV-18 genome containing either the E6 or E7 target site for Cas9. The resultant PCR fragment was then isolated, denatured and then re-annealed to produce a population of DNA heteroduplexes that were digested using SURVEYOR nuclease, which is predicted to cleave at any sites of Cas9-induced mutagenesis. […] To further characterize these mutations, we cloned the same PCR fragments derived from the HPV-18 E6 or E7 gene and then performed DNA sequencing across the predicted cleavage site located 3 bp 5′ to the Cas9 PAM sequence (Mali et al., 2013). Analysis of the HPV-18 E6 gene gave 234 DNA sequence reads, of which 19 bore an assortment of different deletion mutations while 34 contained the same insertion mutation of a single “A” residue 3 bp 5′ to the Spy Cas9 PAM motif. The remaining 181 samples analyzed contained the wildtype E6 sequence. […]

[3] = tested on: retinoblastoma (Rb) protein; assay: Western blot and pRB quantification in transfected HeLa cells; assay type: cell-based, human
Procedure: Phenotypic analysis of RGNs in HeLa was performed using the Fugene6 transfection reagent as per the manufacturer's protocol. Cells were plated at 2.5×10^5 cells per well in 6-well plates and transfected with a 3 to 1 ratio of RGN expression vector to pLCE (a GFP-expressing plasmid included to determine transfection efficiency). SiHa cells were transfected with HPV-16-specific RGN expression vectors using Lipofectamine3000 (Clontech) using the manufacturer's protocol. Cells were then harvested and lysed in SDS/β-mercaptoethanol protein lysis buffer 48 hours post transfection. Lysates were subjected to electrophoresis on 4-20% SDS-polyacrylamide gels (Bio-Rad) and transferred to nitrocellulose membranes. The membranes were then probed in 5% milk-PBS-T (PBS, 0.1% Tween 20, 0.5% bovine serum albumin) with the following antibodies: anti-Flag (Sigma F1804), a rabbit Rev polyclonal antiserum (Malim et al., 1989), anti-β-actin (Santa Cruz S.C.-47778), anti-p53 (Santa Cruz S.C.-126), anti-p21 (Santa Cruz S.C.-397), and anti-Rb (BD Pharmigen 554136). The membranes were washed in PBS-T, incubated with a species-specific secondary antibody, and then washed again in PBS-T. The membranes were incubated with Western Bright Sirius Western blot detection kit (Advansta) and signals captured using GeneSnap and quantified using GeneTools (Syngene). […]

[4] = tested on: HPV-18 E7 gene; assay: Mutagenesis spectra: PCR, cloning and sequencing of HeLa genomic DNA; assay type: cell-based; conditions: Spy Cas9, 48 h post-transfection, of 232 DNA sequences
Procedure: as §1, §2

Substance: E6 sgRNA1: Spy Cas9 sgRNA for HPV-18 E6, GGCGCTTTGAGGATCCAACA; SEQ ID NO: 8 (expressed or natural sequence)
- p21 expression [1]: failed to induce p21 expression
- DNA sequence reads bearing deletion mutations [2]: 19
- DNA sequence reads with insertion of a single A residue 3 bp 5′ to the PAM [2]: 34

Substance: E7 sgRNA1: Spy Cas9 sgRNA for HPV-18 E7, GGAGCAATTAAGCGACTCAG; SEQ ID NO: 10 (expressed or natural sequence)
- increase in Rb expression normalized to β-actin internal control ([3]; Spy Cas9, 48 h post-transfection): 1.4±0.03 fold
- increase in Rb expression over the control, decrease of Cas9 expression taken into account ([3]; Spy Cas9, p=0.011): 5.54±1.42 fold
- DNA sequences with deletion mutations adjacent to the predicted cleavage site [4]: 6
- DNA sequences with insertions of 1 or 2 bp [4]: 46
